Where a name gives a salt, the structure may show the parent alone. Read-outs that look alike come from different tables or passages of the source.
Legend:
[1] = system: subjects suffering from schizophrenia
Excerpt: (§1) Another Key Objective of the study was to determine the reduction in the level of agitation, as determined by their PEC score, at the doses to achieve a RASS of −1.
(§2) Patients 5, 7, 8 and 9 received placebo.
(§3) CGI-I focused on the severity of agitation rather than the severity of the illness. • (4) After the infusion was stopped, the participants were judged for the suitability for discharge by the principal investigator or designee as witnessed by a return to their baseline level of alertness and awareness with no impairment in balance, gait, and reaction time as determined by the principal investigator or designee. Results (A) Efficacy Study RASS (Richmond Agitation-Sedation Scale)

[2] = system: agitation in subjects suffering from schizophrenia
Excerpt: as §1, §2, §3

[3] = system: acute agitation associated with schizophrenia, schizoaffective disorder or schizophreniform disorder; conditions: 2 hours post-dose
Method: PEC comprised 5 items associated with agitation: poor impulse control, tension, hostility, uncooperativeness, and excitement; each scored 1 (minimum) to 7 (maximum). The PEC, the sum of these 5 subscales, thus ranging from 5 to 35.
Efficacy Analyses: The primary efficacy endpoint of the study was the absolute change from baseline in PEC score at 120 mins (2 hours). The intent to treat population (ITT) was analyzed and consisted of all patients who took any study medication and who had both baseline and at least 1 efficacy assessment after dosing. Analyses were conducted using a restricted maximum likelihood repeated measures mixed model on change from baseline values with baseline as a covariate and timepoint, and its interaction with treatment groups as repeated measures using an unstructured covariance structure. Responder comparisons were made via Fisher's exact test.
There were 5 dose cohorts (20 μg, 60 μg, 80 μg, 120 μg and 180 μg) with 18 active patients (total of 90 patients) and 9 placebo patients (total of 45 patients) in each cohort. Active patients in each of the 5 dose cohorts were compared to placebo patients from all 5 cohorts (pooled placebo group).

[4] = Experimental: as §2
The level of dexmedetomidine in the plasma of patients was also measured over the time of infusion.

## Cc1cccc([C@H](C)c2cnc[nH]2)c1C [dexmedetomidine hydrochloride, (+) 4-(S)-[1-(2,3-dimethylphenyl)ethyl]-1H-imidazole]
[1]; IV infusion from 0.2 mcg/kg/hr rising 0.1 mcg/kg/hr every 30 minutes
  Patients (out of 10) in the treatment arm who achieved a RASS score of at least −1: 9
[1]; Patient 1 (treatment arm), 0 minutes
  RASS value after infusion start: 1
[1]; Patient 1 (treatment arm), 15 minutes
  RASS value after infusion start: −2
[1]; Patient 2 (treatment arm), 0 minutes
  RASS value after infusion start: 3
[1]; Patient 2 (treatment arm), 30 minutes
  RASS value after infusion start: 0
[1]; Patient 2 (treatment arm), 60 minutes
  RASS value after infusion start: 0
[1]; Patient 2 (treatment arm), 75 minutes
  RASS value after infusion start: −1
[1]; Patient 3 (treatment arm), 0 minutes
  RASS value after infusion start: 1
[1]; Patient 3 (treatment arm), 30 minutes
  RASS value after infusion start: 0
[1]; Patient 3 (treatment arm), 45 minutes
  RASS value after infusion start: 0
[1]; Patient 3 (treatment arm), 60 minutes
  RASS value after infusion start: −1
[1]; Patient 4 (treatment arm), 0 minutes
  RASS value after infusion start: 1
[1]; Patient 4 (treatment arm), 30 minutes
  RASS value after infusion start: 0
[1]; Patient 4 (treatment arm), 60 minutes
  RASS value after infusion start: 0
[1]; Patient 4 (treatment arm), 90 minutes
  RASS value after infusion start: 0
[1]; Patient 4 (treatment arm), 120 minutes
  RASS value after infusion start: 0
[1]; Patient 4 (treatment arm), […]
  RASS value after infusion start: 0
[1]; Patient 11 (treatment arm), 0 minutes
  RASS value after infusion start: 1
[1]; Patient 11 (treatment arm), 30 minutes
  RASS value after infusion start: 0
[1]; Patient 11 (treatment arm), 60 minutes
  RASS value after infusion start: 0
[1]; Patient 11 (treatment arm), 75 minutes
  RASS value after infusion start: −1
[1]; Patient 12 (treatment arm), 0 minutes
  RASS value after infusion start: 1
[1]; Patient 12 (treatment arm), 30 minutes
  RASS value after infusion start: 0
[1]; Patient 12 (treatment arm), 60 minutes
  RASS value after infusion start: 0
[1]; Patient 12 (treatment arm), 90 minutes
  RASS value after infusion start: 0
[1]; Patient 12 (treatment arm), 120 minutes
  RASS value after infusion start: −1
[1]; Patient 14 (treatment arm), 0 minutes
  RASS value after infusion start: 1
[1]; Patient 14 (treatment arm), 30 minutes
  RASS value after infusion start: 0
[1]; Patient 14 (treatment arm), 60 minutes
  RASS value after infusion start: 0
[1]; Patient 14 (treatment arm), 75 minutes
  RASS value after infusion start: −1
[1]; Patient 16 (treatment arm), 0 minutes
  RASS value after infusion start: 1
[1]; Patient 16 (treatment arm), 30 minutes
  RASS value after infusion start: 0
[1]; Patient 16 (treatment arm), 60 minutes
  RASS value after infusion start: 0
[1]; Patient 16 (treatment arm), 75 minutes
  RASS value after infusion start: −1
[1]; Patient 17 (treatment arm), 0 minutes
  RASS value after infusion start: 1
[1]; Patient 17 (treatment arm), 30 minutes
  RASS value after infusion start: 0
[1]; Patient 17 (treatment arm), 45 minutes
  RASS value after infusion start: −1
[1]; Patient 18 (treatment arm), 0 minutes
  RASS value after infusion start: 0
[1]; Patient 18 (treatment arm), 15 minutes
  RASS value after infusion start: −1
[2]; IV infusion
  Patients (out of 10) in the treatment arm with agitation reduced to a PEC score of 7 or below: 9
[2]; IV route
  Subjects (of 10) with >=50% reduction in PEC score: 7
[2]; Patient 1 (treatment arm), 0 Mins
  PEC value after infusion start: 9
[2]; Patient 1 (treatment arm), 15 Mins
  PEC value after infusion start: 5
[2]; Patient 2 (treatment arm), 0 Mins
  PEC value after infusion start: 16
[2]; Patient 2 (treatment arm), 15 Mins
  PEC value after infusion start: 13
[2]; Patient 2 (treatment arm), 30 Mins
  PEC value after infusion start: 12
[2]; Patient 2 (treatment arm), 45 Mins
  PEC value after infusion start: 11
[2]; Patient 2 (treatment arm), 60 Mins
  PEC value after infusion start: 9
[2]; Patient 2 (treatment arm), 75 Mins
  PEC value after infusion start: 7
[2]; Patient 3 (treatment arm), 0 Mins
  PEC value after infusion start: 12
[2]; Patient 3 (treatment arm), 15 Mins
  PEC value after infusion start: 12
[2]; Patient 3 (treatment arm), 30 Mins
  PEC value after infusion start: 10
[2]; Patient 3 (treatment arm), 45 Mins
  PEC value after infusion start: 7
[2]; Patient 3 (treatment arm), 60 Mins
  PEC value after infusion start: 6
[2]; Patient 4 (treatment arm), 0 Mins
  PEC value after infusion start: 9
[2]; Patient 4 (treatment arm), 15 Mins
  PEC value after infusion start: 9
[2]; Patient 4 (treatment arm), 30 Mins
  PEC value after infusion start: 8
[2]; Patient 4 (treatment arm), 45 Mins
  PEC value after infusion start: 8
[2]; Patient 4 (treatment arm), 60 Mins
  PEC value after infusion start: 7
[2]; Patient 4 (treatment arm), 75 Mins
  PEC value after infusion start: 7
[2]; Patient 4 (treatment arm), 90 Mins
  PEC value after infusion start: 7
[2]; Patient 4 (treatment arm), 105 Mins
  PEC value after infusion start: 7
[2]; Patient 4 (treatment arm), 120 Mins
  PEC value after infusion start: 7
[2]; Patient 4 (treatment arm), 135 Mins
  PEC value after infusion start: 7
[2]; Patient 11 (treatment arm), 0 Mins
  PEC value after infusion start: 13
[2]; Patient 11 (treatment arm), 15 Mins
  PEC value after infusion start: 13
[2]; Patient 11 (treatment arm), 30 Mins
  PEC value after infusion start: 11
[2]; Patient 11 (treatment arm), 45 Mins
  PEC value after infusion start: 9
[2]; Patient 11 (treatment arm), 60 Mins
  PEC value after infusion start: 9
[2]; Patient 11 (treatment arm), 75 Mins
  PEC value after infusion start: 7
[2]; Patient 12 (treatment arm), 0 Mins
  PEC value after infusion start: 13
[2]; Patient 12 (treatment arm), 15 Mins
  PEC value after infusion start: 13
[2]; Patient 12 (treatment arm), 30 Mins
  PEC value after infusion start: 13
[2]; Patient 12 (treatment arm), 45 Mins
  PEC value after infusion start: 10
[2]; Patient 12 (treatment arm), 60 Mins
  PEC value after infusion start: 10
[2]; Patient 12 (treatment arm), 75 Mins
  PEC value after infusion start: 8
[2]; Patient 12 (treatment arm), 90 Mins
  PEC value after infusion start: 6
[2]; Patient 12 (treatment arm), 105 Mins
  PEC value after infusion start: 5
[2]; Patient 14 (treatment arm), 0 Mins
  PEC value after infusion start: 10
[2]; Patient 14 (treatment arm), 15 Mins
  PEC value after infusion start: 9
[2]; Patient 14 (treatment arm), 30 Mins
  PEC value after infusion start: 6
[2]; Patient 14 (treatment arm), 45 Mins
  PEC value after infusion start: 6
[2]; Patient 14 (treatment arm), 60 Mins
  PEC value after infusion start: 5
[2]; Patient 14 (treatment arm), 75 Mins
  PEC value after infusion start: 5
[2]; Patient 16 (treatment arm), 0 Mins
  PEC value after infusion start: 10
[2]; Patient 16 (treatment arm), 15 Mins
  PEC value after infusion start: 9
[2]; Patient 16 (treatment arm), 30 Mins
  PEC value after infusion start: 6
[2]; Patient 16 (treatment arm), 45 Mins
  PEC value after infusion start: 6
[2]; Patient 16 (treatment arm), 60 Mins
  PEC value after infusion start: 7
[2]; Patient 16 (treatment arm), 75 Mins
  PEC value after infusion start: 5
[2]; Patient 17 (treatment arm), 0 Mins
  PEC value after infusion start: 10
[2]; Patient 17 (treatment arm), 15 Mins
  PEC value after infusion start: 8
[2]; Patient 17 (treatment arm), 30 Mins
  PEC value after infusion start: 7
[2]; Patient 17 (treatment arm), 45 Mins
  PEC value after infusion start: 5
[3]; 80 μg
  PANSS-PEC Total Score, Change from baseline, mean (SD): −7.3
[3]; 120 μg
  PANSS-PEC Total Score, Change from baseline, mean (SD): −9.2
[3]; 180 μg
  PANSS-PEC Total Score, Change from baseline, mean (SD): −10.8
[4]; Patient 1 (Treatment), 0 Mins
  Plasma level concentration: BLQ
[4]; Patient 1 (Treatment), 15 Mins
  Plasma level concentration: 0.02245 ng/mL
[4]; Patient 1 (Treatment), 30 Mins
  Plasma level concentration: 0.01472 ng/mL
[4]; Patient 2 (Treatment), 0 Mins
  Plasma level concentration: BLQ
[4]; Patient 2 (Treatment), 30 Mins
  Plasma level concentration: BLQ
[4]; Patient 3 (Treatment), 30 Mins
  Plasma level concentration: BLQ
[4]; Patient 3 (Treatment), 45 Mins
  Plasma level concentration: BLQ
[4]; Patient 4 (Treatment), 0 Mins
  Plasma level concentration: BLQ
[4]; Patient 4 (Treatment), 15 Mins
  Plasma level concentration: BLQ
[4]; Patient 4 (Treatment), 30 Mins
  Plasma level concentration: BLQ
[4]; Patient 4 (Treatment), 45 Mins
  Plasma level concentration: BLQ
[4]; Patient 4 (Treatment), 60 Mins
  Plasma level concentration: BLQ
[4]; Patient 4 (Treatment), 75 Mins
  Plasma level concentration: BLQ
[4]; Patient 4 (Treatment), 90 Mins
  Plasma level concentration: 0.0443 ng/mL
[4]; Patient 11 (Treatment), 0 Mins
  Plasma level concentration: BLQ
[4]; Patient 11 (Treatment), 15 Mins
  Plasma level concentration: 0.04101 ng/mL
[4]; Patient 11 (Treatment), 30 Mins
  Plasma level concentration: 0.06291 ng/mL
[4]; Patient 11 (Treatment), 45 Mins
  Plasma level concentration: 0.12407 ng/mL
[4]; Patient 11 (Treatment), 60 Mins
  Plasma level concentration: 0.15047 ng/mL
[4]; Patient 12 (Treatment), 0 Mins
  Plasma level concentration: BLQ
[4]; Patient 12 (Treatment), 15 Mins
  Plasma level concentration: BLQ
[4]; Patient 12 (Treatment), 30 Mins
  Plasma level concentration: 0.04487 ng/mL
[4]; Patient 12 (Treatment), 45 Mins
  Plasma level concentration: 0.05051 ng/mL
[4]; Patient 12 (Treatment), 60 Mins
  Plasma level concentration: 0.1086 ng/mL
[4]; Patient 12 (Treatment), 75 Mins
  Plasma level concentration: 0.15854 ng/mL
[4]; Patient 12 (Treatment), 90 Mins
  Plasma level concentration: 0.23783 ng/mL
[4]; Patient 12 (Treatment), 105 Mins
  Plasma level concentration: 0.2673 ng/mL
[4]; Patient 14 (Treatment), 0 Mins
  Plasma level concentration: BLQ
[4]; Patient 14 (Treatment), 15 Mins
  Plasma level concentration: BLQ
[4]; Patient 14 (Treatment), 30 Mins
  Plasma level concentration: 0.05266 ng/mL
[4]; Patient 14 (Treatment), 45 Mins
  Plasma level concentration: 0.04653 ng/mL
[4]; Patient 14 (Treatment), 60 Mins
  Plasma level concentration: 0.4063 ng/mL
[4]; Patient 16 (Treatment), 0 Mins
  Plasma level concentration: BLQ
[4]; Patient 16 (Treatment), 15 Mins
  Plasma level concentration: 0.00256 ng/mL
[4]; Patient 16 (Treatment), 30 Mins
  Plasma level concentration: 0.01559 ng/mL
[4]; Patient 16 (Treatment), 45 Mins
  Plasma level concentration: 0.04117 ng/mL
[4]; Patient 16 (Treatment), 60 Mins
  Plasma level concentration: 0.06788 ng/mL
[4]; Patient 16 (Treatment), 75 Mins
  Plasma level concentration: 0.07226 ng/mL
[4]; Patient 17 (Treatment), 0 Mins
  Plasma level concentration: BLQ
[4]; Patient 17 (Treatment), 15 Mins
  Plasma level concentration: 0.01587 ng/mL
[4]; Patient 17 (Treatment), 30 Mins
  Plasma level concentration: BLQ
[4]; Patient 17 (Treatment), 45 Mins
  Plasma level concentration: 0.03993 ng/mL
[4]; Patient 18 (Treatment), 0 Mins
  Plasma level concentration: BLQ
[4]; Patient 18 (Treatment), 15 Mins
  Plasma level concentration: 0.04836 ng/mL
[4]; Patient 18 (Treatment), 30 Mins
  Plasma level concentration: 0.05453 ng/mL

Reference: patent publication US12109196B2, “Non-sedating dexmedetomidine treatment regimens” (BioXcel Therapeutics, Inc., priority 2019, dated 2024)
